Reference: ChEMBL document CHEMBL4651402, “Screening of ~5500 FDA-approved drugs and clinical candidates for anti-SARS-CoV-2 activity” (2021)
Numbered stars: 1 amine (or outer) side, 2 acyl side, 3 side chain; on linkers, the order of the positions; unused ones are H or OH. Bridge positions count the residues as written; N and C are the ends. Square brackets hold non-standard residues; d marks the D form. Peptide text beside a SMILES is read from it. * marks the point of attachment. X1 = NC1=N[C@@H]([C@H](N[*:1])C(=O)[*:2])C[C@H](O)N1; ΔAla(Z-3-ureido) = NC(=O)N/C=C(\N)C(=O)O; β3hOrn = NCCC[C@H](N)CC(=O)*; Dap = NC[C@H](N)C(=O)O

Test system: SARS-CoV-2
Assay: microbe, parasite or virus in culture
Conditions: Severe acute respiratory syndrome coronavirus 2, Vero C1008, 48 h

Row | Compound | IC50 [µM] | IC50 (read-out: pIC50 (converted)) [µM]
1 | CC(C)(C)c1ccc(S(=O)(=O)Nc2ccc(Cl)cc2C(=O)c2cc[n+]([O-])cc2)cc1 [VERCIRNON] | > 20 | > 20
2 | COc1ccc(N(C)c2nc(C)nc3ccccc23)cc1 [VERUBULIN] | > 20 | > 20
3 | CCCCOc1nc(N)c2c(n1)N(Cc1cccc(CN3CCCC3)c1)CC(=O)N2 [VESATOLIMOD] | > 20 | > 20
4 | COC[C@@H](c1ccc(C(F)(F)F)cc1)N1CCN(C2(C)CCN(C(=O)c3c(C)ncnc3C)CC2)C[C@@H]1C [VICRIVIROC] | > 20 | > 20
5 | COc1cccc(-c2ccc(NC(=O)C3=C(C(=O)O)CCC3)c(F)c2)c1 [VIDOFLUDIMUS] | > 20 | > 20
6 | CC(C)(C)NC(=O)c1ccc(Oc2cc(F)c(CC(=O)O)cc2Cl)c(NS(=O)(=O)c2ccc(C3CC3)cc2Cl)c1 [VIDUPIPRANT] | > 20 | > 20
7 | C=CC(N)CCC(=O)O (stereo unspecified) [VIGABATRIN] | > 20 | > 20
8 | N#C[C@@H]1CCCN1C(=O)CNC12CC3CC(CC(O)(C3)C1)C2 [VILDAGLIPTIN] | > 20 | > 20
9 | CCOc1ccccc1OCC1CNCCO1 (stereo unspecified) [VILOXAZINE] | > 20 | > 20
10 | CC[C@]12CCCN3CCc4c(n(c5ccccc45)C(=O)C1)[C@@H]32 [VINBURNINE] | > 20 | > 20
11 | CC[C@]12CCCN3CCc4c(n(c5ccccc45)[C@@](O)(C(=O)OC)C1)[C@@H]32 [VINCAMINE] | > 20 | > 20
12 | CC[C@]1(O)C[C@H]2CN(CCc3c([nH]c4ccccc34)[C@@](C(=O)OC)(c3cc4c(cc3OC)N(C=O)[C@H]3[C@@](O)(C(=O)OC)[C@H](OC(C)=O)[C@]5(CC)C=CCN6CC[C@]43[C@@H]65)C2)C1 [VINCRISTINE] | > 20 | > 20
13 | CC[C@]1(O)C[C@@H]2CN(CCc3c([nH]c4ccccc34)[C@@](C(=O)OC)(c3cc4c(cc3OC)N(C)[C@H]3[C@@](O)(C(N)=O)[C@H](O)[C@]5(CC)C=CCN6CC[C@]43[C@@H]65)C2)C1 [VINDESINE] | > 20 | > 20
14 | CCOC(=O)C1=C[C@]2(CC)CCCN3CCc4c(n1c1ccccc41)[C@@H]32 [VINPOCETINE] | > 20 | > 20
15 | NCCC[C@H](N)CC(=O)N[C@H]1CNC(=O)[C@H]([C@H]2C[C@H](O)NC(N)=N2)NC(=O)/C(=C/NC(N)=O)NC(=O)[C@H](CO)NC(=O)[C@H](CO)NC1=O [VIOMYCIN] (β3hOrn-[Dap]SS[ΔAla(Z-3-ureido)][X1]; lactam 1-C) | > 20 | > 20
16 | CC(C)S(=O)(=O)n1c(N)nc2ccc(C(=NO)c3ccccc3)cc21 [VIROXIME] | > 20 | > 20
17 | CS(=O)(=O)c1ccc(C(=O)Nc2ccc(Cl)c(-c3ccccn3)c2)c(Cl)c1 [VISMODEGIB] | > 20 | > 20
18 | COc1c2ccoc2cc2oc(C)cc(=O)c12 [VISNAGIN] | > 20 | > 20
19 | CNC(=O)c1cccc(-c2ccc3c(N4CCOC[C@@H]4C)nc(N4CCOC[C@@H]4C)nc3n2)c1 [VISTUSERTIB] | > 20 | > 20
20 | N#CC(O[C@@H]1O[C@H](CO[C@@H]2O[C@H](CO)[C@@H](O)[C@H](O)[C@H]2O)[C@@H](O)[C@H](O)[C@H]1O)c1ccccc1 (stereo partly specified) [VITAMIN B17] | > 20 | > 20

Row | Compound | IC50 [µM] | IC50 (read-out: pIC50 (converted)) [µM]
21 | COc1cccc([C@H](O)C2CCN(CCc3ccc(F)cc3)CC2)c1OC [VOLINANSERIN] | > 20 | > 20
22 | C[C@@H](c1ncncc1F)[C@](O)(Cn1cncn1)c1ccc(F)cc1F [VORICONAZOLE] | > 20 | > 20
23 | Cc1nnnn1N=Cc1ccc(O)c(C(c2ccc(O)cc2)c2cc(C=Nn3nnnc3C)ccc2O)c1 (stereo unspecified) [VP-14637] | > 20 | > 20
24 | COC(=O)/C(=C1/OC(=O)C(c2ccccc2)=C1O)c1ccccc1 [VULPINIC ACID] | > 20 | > 20
25 | CC(C)OC(=O)[C@H](C)NP(=S)(OC[C@H]1O[C@@H](n2ccc(=O)[nH]c2=O)[C@](C)(O)[C@@H]1O)Oc1ccccc1 (stereo partly specified) [VX-135] | > 20 | > 20
26 | NC(=O)c1ccc(N(C(N)=O)c2c(F)cccc2F)nc1-c1ccc(F)cc1F [VX-702] | > 20 | > 20
27 | CC(=O)CC(c1ccccc1)c1c(O)c2ccccc2oc1=O (stereo unspecified) [WARFARIN] | > 20 | > 20
28 | Cc1cc(CCCCCOc2c(Cl)cc(C3=NCCO3)cc2Cl)on1 [WIN-54954] | > 20 | > 20
29 | FC(F)(F)c1cccc(C2=CCN(CCc3ccc4ccccc4c3)CC2)c1 [XALIPRODEN] | > 20 | > 20
30 | O=C(NCCNCC(O)COc1ccc(O)cc1)N1CCOCC1 (stereo unspecified) [XAMOTEROL] | > 20 | > 20
31 | CCCCCCOc1nsnc1C1=CCCN(C)C1 [XANOMELINE] | > 20 | > 20
32 | CN(CCO)CC(O)Cn1cnc2c1c(=O)n(C)c(=O)n2C (stereo unspecified) [XANTHINOL] | > 20 | > 20
33 | COc1cc(O)c(C(C)=O)c(OC)c1 [XANTHOXYLIN] | > 20 | > 20
34 | O=C(O)c1cc(O)c2cccc(O)c2n1 [XANTHURENATE] | > 20 | > 20
35 | CCC(C(=O)O)c1ccc(-c2ccccc2)cc1 (stereo unspecified) [XENBUCIN] | > 20 | > 20
36 | Cc1cccc(C)c1NC(=O)c1cc(S(N)(=O)=O)c(Cl)cc1O [XIPAMIDE] | > 20 | > 20
37 | Cc1cccc(C)c1NC1=NCCCS1 [XYLAZINE] | > 20 | > 20
38 | OC[C@@H](O)[C@H](O)[C@@H](O)CO [XYLITOL] | > 20 | > 20
39 | Cc1cc(C(C)(C)C)cc(C)c1CC1=NCCN1 [XYLOMETAZOLINE] | > 20 | > 20
40 | C[C@@H](N)c1ccc(C(=O)Nc2ccnc3[nH]ccc23)cc1 [Y-39983] | > 20 | > 20

Row | Compound | IC50 [µM] | IC50 (read-out: pIC50 (converted)) [µM]
41 | O=c1[nH]c2cc(-n3ccnc3)c([N+](=O)[O-])cc2[nH]c1=O [YM-90K] | > 20 | > 20
42 | O=C(O)[C@@H]1[C@H]2C[C@H]3c4[nH]c5ccccc5c4CCN3C[C@@H]2CC[C@@H]1O [YOHIMBIC ACID] | > 20 | > 20
43 | COC(=O)[C@@H]1[C@H]2C[C@H]3c4[nH]c5ccccc5c4CCN3C[C@@H]2CC[C@@H]1O [YOHIMBINE] | > 20 | > 20
44 | O=C(CC(c1ccccc1)c1ccccc1)N1CCN(C(c2ccccc2)c2ccccc2)CC1 [Z160] | > 20 | > 20
45 | COc1cc(N)c(Cl)cc1C(=O)NC1CN2CCC1CC2 (stereo unspecified) [ZACOPRIDE] | > 20 | > 20
46 | COc1cc(C(=O)NS(=O)(=O)c2ccccc2C)ccc1Cc1cn(C)c2ccc(NC(=O)OC3CCCC3)cc12 [ZAFIRLUKAST] | > 20 | > 20
47 | Nc1ccn([C@H]2CC[C@@H](CO)O2)c(=O)n1 [ZALCITABINE] | > 20 | > 20
48 | CC1(CN2CCC(n3c(=O)[nH]c4ccccc43)CC2)OCc2ccccc2-n2cccc21 (stereo unspecified) [ZALDARIDE] | > 20 | > 20
49 | Cc1ncc(-c2csc(N=C(N)N)n2)[nH]1 [ZALTIDINE] | > 20 | > 20
50 | CC(=O)N[C@H]1[C@H]([C@H](O)[C@H](O)CO)OC(C(=O)O)=C[C@@H]1NC(=N)N [ZANAMIVIR] | > 20 | > 20
51 | C#C[C@]1(O)CC[C@H]2[C@@H]3CC[C@H]4Cc5nn(S(C)(=O)=O)cc5C[C@]4(C)[C@H]3CC[C@@]21C [ZANOTERONE] | > 20 | > 20
52 | C=CC(=O)N1CCC([C@@H]2CCNc3c(C(N)=O)c(-c4ccc(Oc5ccccc5)cc4)nn32)CC1 [ZANUBRUTINIB] | > 20 | > 20
53 | CCCOc1ccccc1-c1nc2[nH]nnc2c(=O)[nH]1 [ZAPRINAST] | > 20 | > 20
54 | COc1cc(-c2ccc(=O)[nH]n2)ccc1OC(F)F [ZARDAVERINE] | > 20 | > 20
55 | COc1ccc(CCN(C)CCCN2CCc3cc(OC)c(OC)cc3CC2=O)cc1OC [ZATEBRADINE] | > 20 | > 20
56 | C[C@H](NC(=O)Cn1nnc2ccccc2c1=O)c1ccc(OC(F)(F)F)cc1 [ZELATRIAZIN] | > 20 | > 20
57 | Cc1ccc(OCC(O)C(C)NC(C)C)c2c1CCC2 (stereo unspecified) [ZENIDOLOL] | > 20 | > 20
58 | C[C@H]1CCC[C@H](O)CCCCCc2cc(O)cc(O)c2C(=O)O1 [ZERANOL] | > 20 | > 20
